Reference: PubChem BioAssay AID2060886 (Molecular Pharmacology Branch, DTP, NCI, 2025)

Tested on: 653999-131-R-J2-PDC complex spheroids, growth inhibition
Experiment: Anticancer human tumor 653999-131-R-J2-PDC patient-derived lung adenocarcinoma cell line growth inhibition [RAS]
Conditions: for viability, T/C: stronger effect = lower value
Description: RAS pathway inhibitors in Combinations in Complex Spheroids
A high-throughput screen of multi-cell type tumor spheroids was designed to identify active combinations of RAS pathway inhibitors and targeted small molecules. Complex spheroids include a stromal component modeled by human endothelial cells (HUVEC) and fibroblasts modeled by human mesenchymal stem cells (MSCs). The concentration ranges selected for each drug and investigational agent were based upon clinically achievable concentrations if the clinical Cmax of the agent was known.
Compounds. The drugs and investigational agents: abemaciclib (NSC768073), cobimetinib (NSC768068), divarasib (GDC6063, NSC841802), docetaxel (NSC628503), GDC-1971 (RLY-1971, NSC841576), gemcitabine (NSC613327), inavolisib (NSC800729), ipatasertib (NSC767898), KB-0742 (NSC834161), MRTX-1133 (NSC836407), osimertinib (NSC779217), RMC-4630 (NSC839698), RMC-6236 (NSC851965), RMC-6291 (NSC852671), Ro-3306 (NSC812927), sapanisertib (NSC764658), SN-38 (NSC673596), staurosporine (NSC755774), SY5609 (NSC837396), and tovorafenib (DAY101, NSC766906), were obtained from the National Cancer Institute (NCI) Developmental Therapeutics Program Chemical Repository. The FDA-approved anticancer drug set is available from the NCI Developmental Therapeutics Program. […] The stock solutions were prepared in dimethyl sulfoxide (DMSO, Sigma-Aldrich, St. Louis, MO, cat. D2650) at 800-fold the tested concentration and stored at -70 degrees C prior to their use. All drugs and investigational agents were tested over a range starting from a high concentration at or near the clinical Cmax and decreasing in half-log increments. If the clinical Cmax for an agent had not been determined, the highest concentration tested was 10 microM.
Cell Culture. All cells were maintained in an incubator at 37 degrees C and 5% CO2 with 95% humidity. The PDC lines were cultured according to standard operating procedures established by the NCI PDMR. All PDCs were thawed and cultured in Matrigel-coated flasks prepared with a working solution of 1X Ham's F-12 nutrient mix, without supplementation (Invitrogen, Waltham, MA, cat. 11765054), 100 U/mL penicillin-streptomycin (Invitrogen, cat. 15140122), and 2.5% Matrigel (Corning Inc., Corning, NY, cat. 354248) for the first three passages. The 362531-283-R-J2-PDC and 782815-120-R-J1-PDC lines were cultured in 6C/Colon 1B media, which includes advanced DMEM/F-12 (Thermo Fisher Scientific, cat. 12634028), 10 mM HEPES (Thermo Fisher Scientific, cat. 15630080), 1X GlutaMAX supplement (Thermo Fisher Scientific, cat. 35050061), 0.1 mg/mL primocin (InvivoGen, San Diego, CA, cat. ant-pm-2), 10% defined fetal bovine serum, heat inactivated (HyClone Laboratories Inc., Logan, UT, cat. SH30070.03HI), 50% L-WRN conditioned media (ATCC, cat. CRL-3276), 1.25 mM N-Acetyl-L-cysteine (Sigma-Aldrich, cat. A9165), 10 mM nicotinamide (Sigma-Aldrich, cat. N0636), 1X B-27 supplement (Thermo Fisher Scientific, cat. 17504044), 1X N-2 supplement (Thermo Fisher Scientific, cat. 17502048), 50 ng/mL human EGF (Thermo Fisher Scientific, cat. PHG0311), and 10 microM Y-27632 dihydrochloride (Tocris Bioscience, cat. 1254). The K12877-001-R-J1-PDC line was cultured in 6I media, which includes all 6C/Colon 1B media plus 10 ng/mL human FGF-10 (PeproTech, cat. 100-26), 1 ng/mL human FGF-2 (PeproTech, cat. 100-18B), 1 µM prostaglandin E2 (Tocris Bioscience, cat. 2296), […] hydrocortisone (Sigma-Aldrich, cat. H4001), and […] bovine insulin (Sigma-Aldrich, cat. I6634). The K86415-001-R-J1-PDC line was cultured in 6D media, which includes all 6C/Colon 1B media components minus the L-WRN conditioned media. The 485176-168-R4-J1-PDC was cultured in PANC media, which includes all 6C/Colon 1B media plus 100 ng/mL human FGF-10 (PeproTech, cat. 100-26), 500 nM SB-431542 (Selleckchem, cat. S1067), and 10 nM gastrin (Tocris Bioscience, cat. 3006). […]
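Further: spheroids exposed to the agents for seven days before the readout.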

## CCc1c2c(nc3ccc(O)cc13)-c1cc3c(c(=O)n1C2)COC(=O)[C@]3(O)CC
Compound 0.000949 µM
  viability, T/C: 85% [middle of 4 runs]
Compound 0.003 µM
  viability, T/C: 66.5% [middle of 4 runs]
Compound 0.00949 µM
  viability, T/C: 49.5% [middle of 4 runs]
Compound 0.03 µM
  viability, T/C: 38.3% [middle of 4 runs]
Compound 0.0949 µM
  viability, T/C: 26.5% [middle of 4 runs]
Compound 0.3 µM
  viability, T/C: 13.7% [middle of 4 runs]
Curve of compound
  IC50: 9.95 nM [middle of 4 runs]

## CC(C)NCC(C(=O)N1CCN(c2ncnc3c2C(C)CC3O)CC1)c1ccc(Cl)cc1 (centres undefined) + C=CC(=O)N1CCN(c2nc(OCC3CCCN3C)nc3c(F)c(-c4nc(N)cc(C)c4C(F)(F)F)c(Cl)cc23)C(C)C1
Curve of first compound, second compound 0.00316 µM
  IC50: 1310 nM
Curve of first compound, second compound 0.01 µM
  IC50: 1960 nM
Curve of first compound, second compound 0.0316 µM
  IC50: 1410 nM
Curve of first compound, second compound 0.1 µM
  IC50: 1540 nM
Curve of first compound, second compound 0.316 µM
  IC50: 1500 nM
Curve of first compound, second compound 1 µM
  IC50: 927 nM
Second compound 0.00316 µM, first compound 0.0316 µM
  viability, T/C: 116%
Second compound 0.00316 µM, first compound 0.1 µM
  viability, T/C: 104%
Second compound 0.00316 µM, first compound 0.316 µM
  viability, T/C: 96.6%
Second compound 0.00316 µM, first compound 1 µM
  viability, T/C: 52%
Second compound 0.00316 µM, first compound 3.16 µM
  viability, T/C: 41.7%
Second compound 0.00316 µM, first compound 10 µM
  viability, T/C: 40.8%
Second compound 0.01 µM, first compound 0.0316 µM
  viability, T/C: 89.6%
Second compound 0.01 µM, first compound 0.1 µM
  viability, T/C: 100%
Second compound 0.01 µM, first compound 0.316 µM
  viability, T/C: 69.1%
Second compound 0.01 µM, first compound 1 µM
  viability, T/C: 61.1%
Second compound 0.01 µM, first compound 3.16 µM
  viability, T/C: 44.2%
Second compound 0.01 µM, first compound 10 µM
  viability, T/C: 40.9%
Second compound 0.0316 µM, first compound 0.0316 µM
  viability, T/C: 98.6%
Second compound 0.0316 µM, first compound 0.1 µM
  viability, T/C: 97.3%
Second compound 0.0316 µM, first compound 0.316 µM
  viability, T/C: 73.9%
Second compound 0.0316 µM, first compound 1 µM
  viability, T/C: 54%
Second compound 0.0316 µM, first compound 3.16 µM
  viability, T/C: 43.6%
Second compound 0.0316 µM, first compound 10 µM
  viability, T/C: 35.5%
Second compound 0.1 µM, first compound 0.0316 µM
  viability, T/C: 104%
Second compound 0.1 µM, first compound 0.1 µM
  viability, T/C: 95.1%
Second compound 0.1 µM, first compound 0.316 µM
  viability, T/C: 76.2%
Second compound 0.1 µM, first compound 1 µM
  viability, T/C: 52.9%
Second compound 0.1 µM, first compound 3.16 µM
  viability, T/C: 45.1%
Second compound 0.1 µM, first compound 10 µM
  viability, T/C: 37.7%
Second compound 0.316 µM, first compound 0.0316 µM
  viability, T/C: 90.2%
Second compound 0.316 µM, first compound 0.1 µM
  viability, T/C: 95.9%
Second compound 0.316 µM, first compound 0.316 µM
  viability, T/C: 82.6%
Second compound 0.316 µM, first compound 1 µM
  viability, T/C: 53.8%
Second compound 0.316 µM, first compound 3.16 µM
  viability, T/C: 44.8%
Second compound 0.316 µM, first compound 10 µM
  viability, T/C: 39.6%
Second compound 1 µM, first compound 0.0316 µM
  viability, T/C: 98.9%
Second compound 1 µM, first compound 0.1 µM
  viability, T/C: 87.7%
Second compound 1 µM, first compound 0.316 µM
  viability, T/C: 81.5%
Second compound 1 µM, first compound 1 µM
  viability, T/C: 46.9%
Second compound 1 µM, first compound 3.16 µM
  viability, T/C: 43.5%
Second compound 1 µM, first compound 10 µM
  viability, T/C: 41.1%
